From ChEMBL document CHEMBL1201862, “PubChem BioAssay data set” (2004)
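Step 1: Grow cells in 96-well plates. Step 2: Expose to compound for 48 hours at 5 concentrations. Step 3: Interpolate endpoints linearly; if unreached, use highest concentration. GI50 marks 50% less growth.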 Active and inactive are the calls of the source. Cut-off read from the data, not from the text of the source: active = GI50 up to about 1.1 µM and inactive = higher.

Columns and labels:
Assay in all cases: growth of human tumour cells (NCI), 48 h
SNB-78 = system: SNB-78
DMS-114 = system: DMS-114
DMS-273 = system: DMS-273
DLD-1 = system: DLD-1
XF498 = system: XF498
M19-MEL = system: M19-MEL
RXF 631 = system: RXF 631
HOP-18 = system: HOP-18
BT-549 = system: BT-549

Measured: GI50

COC1=CC(=O)C(O)=C(CC2(C)C(C)CCC3(C)C2CCCC3(C)C)C1=O (stereo unspecified)
inactive: SNB-78 18.1 µM | DMS-114 2.57 µM | DMS-273 3.47 µM | DLD-1 5.53 µM | XF498 4.14 µM | M19-MEL 2.16 µM | RXF 631 25.7 µM | HOP-18 2.65 µM

O=C(O)CNc1cc(-c2ccccc2)nc(NCC(=O)O)n1
inactive: SNB-78 > 100 µM | DMS-114 > 100 µM | DMS-273 > 100 µM | DLD-1 > 100 µM | XF498 > 100 µM | M19-MEL > 100 µM | RXF 631 > 100 µM | HOP-18 > 100 µM

CSc1snc2sc3c(Cl)nnnc3c12
inactive: SNB-78 13.8 µM | DMS-114 13.2 µM | DMS-273 11.4 µM | DLD-1 10 µM | XF498 14.4 µM | M19-MEL 9.35 µM | RXF 631 16.1 µM | HOP-18 19.1 µM

CN1C(c2ccccc2)CC(=NOCc2ccccc2)CC1c1ccccc1 (stereo unspecified)
inactive: SNB-78 42.5 µM | DMS-114 17.7 µM | DMS-273 33.7 µM | DLD-1 46.7 µM | XF498 > 100 µM | M19-MEL > 100 µM | RXF 631 31.2 µM | BT-549 16.9 µM | HOP-18 48 µM

O=C(OCN1C(=O)C2C3C=CC(C2C1=O)C1C2C(=O)N(COC(=O)C4CCCN4)C(=O)C2C31)C1CCCN1 (stereo unspecified)
inactive: SNB-78 > 100 µM | DMS-114 25.9 µM | DMS-273 38.5 µM | DLD-1 34.2 µM | XF498 > 75.9 µM | M19-MEL > 77.8 µM | RXF 631 > 64.7 µM | HOP-18 > 100 µM
